Test: Adverse events (CTCAE 4.0) under apatinib plus gefitinib
Assay type: in vivo, human
[1] = Apatinib 500 mg Cohort (n = 6), with gefitinib 250 mg, treatment‐related AE, patients (%)

N#CC1(c2ccc(NC(=O)c3cccnc3NCc3ccncc3)cc2)CCCC1 [Apatinib]
Abdominal distention, ALL [1]: 0
Abdominal distention, Grade 1–2 [1]: 0
Abdominal distention, Grade 3–4 [1]: 0
Blurred vision, ALL [1]: 1 (16.7%)
Blurred vision, Grade 1–2 [1]: 1 (16.7%)
Blurred vision, Grade 3–4 [1]: 0
Cough, ALL [1]: 1 (16.7%)
Cough, Grade 1–2 [1]: 1 (16.7%)
Cough, Grade 3–4 [1]: 0
Diarrhea, ALL [1]: 4 (66.7%)
Diarrhea, Grade 1–2 [1]: 3 (50.0%)
Diarrhea, Grade 3–4 [1]: 1 (16.7%)
Dizziness, ALL [1]: 1 (16.7%)
Dizziness, Grade 1–2 [1]: 1 (16.7%)
Dizziness, Grade 3–4 [1]: 0
Dry skin, ALL [1]: 1 (16.7%)
Dry skin, Grade 1–2 [1]: 1 (16.7%)
Dry skin, Grade 3–4 [1]: 0
Dysgeusia, ALL [1]: 0
Dysgeusia, Grade 1–2 [1]: 0
Dysgeusia, Grade 3–4 [1]: 0
Eczema, ALL [1]: 0
Eczema, Grade 1–2 [1]: 0
Eczema, Grade 3–4 [1]: 0
Elevated ALT, ALL [1]: 5 (83.3%)
Elevated ALT, Grade 1–2 [1]: 4 (66.7%)
Elevated ALT, Grade 3–4 [1]: 1 (16.7%)
Elevated AST, ALL [1]: 3 (50.0%)
Elevated AST, Grade 1–2 [1]: 3 (50%)
Elevated AST, Grade 3–4 [1]: 0
Epistaxis, ALL [1]: 1 (16.7%)
Epistaxis, Grade 1–2 [1]: 1 (16.7%)
Epistaxis, Grade 3–4 [1]: 0
Fatigue, ALL [1]: 1 (16.7%)
Fatigue, Grade 1–2 [1]: 1 (16.7%)
Fatigue, Grade 3–4 [1]: 0
Gastrointestinal bleeding, ALL [1]: 0
Gastrointestinal bleeding, Grade 1–2 [1]: 0
Gastrointestinal bleeding, Grade 3–4 [1]: 0
HFSR, ALL [1]: 2 (33.3%)
HFSR, Grade 1–2 [1]: 2 (33.3%)
HFSR, Grade 3–4 [1]: 0
Haematuria, ALL [1]: 0
Haematuria, Grade 1–2 [1]: 0
Haematuria, Grade 3–4 [1]: 0
Headache, ALL [1]: 0
Headache, Grade 1–2 [1]: 0
Headache, Grade 3–4 [1]: 0
Hematochezia, ALL [1]: 0
Hematochezia, Grade 1–2 [1]: 0
Hematochezia, Grade 3–4 [1]: 0
Hypertension, ALL [1]: 4 (66.7%)
Hypertension, Grade 1–2 [1]: 3 (50.0%)
Hypertension, Grade 3–4 [1]: 1 (16.7%)
Increased bilirubin, ALL [1]: 1 (16.7%)
Increased bilirubin, Grade 1–2 [1]: 1 (16.7%)
Increased bilirubin, Grade 3–4 [1]: 0
Increased creatinine, ALL [1]: 1 (16.7%)
Increased creatinine, Grade 1–2 [1]: 1 (16.7%)
Increased creatinine, Grade 3–4 [1]: 0
Leukopenia, ALL [1]: 1 (16.7%)
Leukopenia, Grade 1–2 [1]: 1 (16.7%)
Leukopenia, Grade 3–4 [1]: 0
Nausea, ALL [1]: 3 (50.0%)
Nausea, Grade 1–2 [1]: 3 (50.0%)
Nausea, Grade 3–4 [1]: 0
Neutropenia, ALL [1]: 1 (16.7%)
Neutropenia, Grade 1–2 [1]: 1 (16.7%)
Neutropenia, Grade 3–4 [1]: 0
Oulorrhagia, ALL [1]: 0
Oulorrhagia, Grade 1–2 [1]: 0
Oulorrhagia, Grade 3–4 [1]: 0
Paronychia, ALL [1]: 0
Paronychia, Grade 1–2 [1]: 0
Paronychia, Grade 3–4 [1]: 0
Periodontitis, ALL [1]: 0
Periodontitis, Grade 1–2 [1]: 0
Periodontitis, Grade 3–4 [1]: 0
Pharyngalgia, ALL [1]: 0
Pharyngalgia, Grade 1–2 [1]: 0
Pharyngalgia, Grade 3–4 [1]: 0
Pneumonia (non‐interstitial), ALL [1]: 0
Pneumonia (non‐interstitial), Grade 1–2 [1]: 0
Pneumonia (non‐interstitial), Grade 3–4 [1]: 0
Proteinuria, ALL [1]: 4 (66.7%)
Proteinuria, Grade 1–2 [1]: 2 (33.3%)
Proteinuria, Grade 3–4 [1]: 2 (33.3%)
Pruritus, ALL [1]: 1 (16.7%)
Pruritus, Grade 1–2 [1]: 1 (16.7%)
Pruritus, Grade 3–4 [1]: 0
Rash, ALL [1]: 6 (100%)
Rash, Grade 1–2 [1]: 6 (100%)
Rash, Grade 3–4 [1]: 0
Stomatitis, ALL [1]: 0
Stomatitis, Grade 1–2 [1]: 0
Stomatitis, Grade 3–4 [1]: 0
Thrombocytopenia, ALL [1]: 2 (33.3%)
Thrombocytopenia, Grade 1–2 [1]: 2 (33.3%)
Thrombocytopenia, Grade 3–4 [1]: 0
Trachyphonia, ALL [1]: 1 (16.7%)
Trachyphonia, Grade 1–2 [1]: 1 (16.7%)
Trachyphonia, Grade 3–4 [1]: 0
Vomiting, ALL [1]: 2 (33.3%)
Vomiting, Grade 1–2 [1]: 2 (33.3%)
Vomiting, Grade 3–4 [1]: 0
Serious Adverse Event (Patient 007, Apatinib Dose 500 mg, Discontinuation, Correlation with Apatinib Yes, Remission): Hypertension

Reference: paper PMC7403827 (Clinical and Translational Medicine, 2020)
